Test results as given in US20020049151A1, “Therapeutic approaches to diseases by suppression of the NURR subfamily of nuclear transcription factors” (priority 2000, published 2002).

What was measured:
[1] = tested on: CRH mRNA; test: RT-PCR of CRH mRNA in primary human synoviocytes; type: cell-based; settings: primary RA and PsA synoviocytes, 6 h; 10 ng/ml IL-1β, IL-6, TNF, 1 μM PGE2, MoCM; mean +/−SE
Excerpt: To identify the origin of the cells that express CRH, the expression of CRH mRNA in isolated primary human synoviocyte cells was investigated. Synoviocytes are an important source and target cell for IL-1β, TNFα and PGE2 action within inflamed synovial tissue (Bucala et al., 1991). Moreover, these pro-inflammatory agents are important mediators in the pathogenesis of human synovial hyperplasia and cartilage destruction (MacNaul et aL., 1990). […] Representative examples of PCR products generated using synoviocytes maintained under normal conditions (Con), or exposed to 10 ng/ml IL-1β, IL-6, TNF, 1 μM PGE2, MoCM or 25 μM forskolin (FOR) for 6 h. Results were obtained from three separate experiments, using both RA and PsA cell lines. Values shown are the mean +/−SE. The symbol * indicates P<0.01 compared to control. PCR products generated were confirmed by Southern blot analysis using CDNA probes for human CRH and GAPDH.
The regulation of hypothalamic CRH gene expression by activation of adenylate cyclase/protein kinase A signaling pathway has previously been established (Guardiola-diaz et al., 1994). The ability of forskolin (FOR), an adenylate cyclase activating agent, was tested for stimulatory effects on CRH gene expression in primary synoviocytes. […] To determine regulatory signals of peripheral CRH expression the ability of pro-inflammatory agonists to regulate endogenous CRH MRNA was examined. […] Next, a comparison of the ability of individual pro-inflammatory mediators to induce CRH mRNA was performed. […] Levels of GAPDH mRNA remained relatively constant under all conditions tested (FIG. 1D).
Synovial tissue was treated for 4 h with 1 mg/ml collagenase (type I; Worthington Biochemical, Freehold, N.J.) in RPMI at 37° C. in 5% CO2. Dissociated cells were plated in RPMI supplemented with 10% fetal calf serum (GibcoBRL, Paisley, UK), penicillin (100 U/ml), streptomycin (100 U/ml) and fungizone (0.25 μg/ml). […] Twenty-four hours before transfection, 1×10^6 synoviocyte cells were plated in 25 cm^2 dishes and allowed to attach. […] Chloramphenicol acetyl transferase (CAT) levels were measured using a CAT ELISA (Boehringer Mannheim, Germany). Protein concentrations were determined by the Bradford assay (BioRad, Richmond, Calif.). […]

[2] = tested on: CRH NBRE; test: EMSA of synoviocyte nuclear extracts with CRH NBRE; type: cell-based, human; settings: synoviocytes stimulated 1 h; 25 μM forskolin, 10 ng/ml TNFα, IL-1β or PGE2
Protocol: To analyze the effects of cytokines on the ability of NURR1 to bind DNA, EMSA was performed to examine the binding properties of NURR1 to the consensus sequence (NBRE) in the human CRH promoter. […] Binding of the larger protein complex, and to a lesser extent the smaller complex, was inhibited by 50× molar excess of unlabeled homologous oligonucleotide.
Nuclear extracts from untreated, 25 μM forskolin (FOR) or lOng/ml TNFα treated synoviocytes (1 h) were compared for increased binding to the α^32 P-labeled CRH NBRE. DNA-protein interactions were assayed in the presence of 50× molar excess of homologous oligonucleotide or NURR1 specific antiserum (NURR1 Ab).
Nuclear protein extracts were prepared as previously described (Murphy and Conneely, 1997). For the EMSAs, 1 μg of nuclear extract was incubated for 20 mins in the presence of 20 mM Hepes (pH 7.9), 5 mM MgCl2, 20% glycerol, 100 mM KCL, 0.2 mM EDTA, 8% Ficoll, […], 500 ng/μl poly (deoxyinosinicdeoxycytidylic) acid, 50 mM dithiothreitol (DTT) and [α-^32P]-dCTP labeled doublestranded oligonucleotide. For supershifts experiments, antibodies to NURR1 (Santa Cruz Biotechnology, Santa Cruz, Calif.) were added following the initial 20-minute incubation, then incubated for an additional 20 minutes. The samples were electrophoresed through a 5.5% non-denaturing polyacrylamide gel in 0.5× TrisBorate-EDTA (TBE) buffer. For competition studies, the reaction was performed as described with the indicated concentrations of unlabeled probe. The oligonucleotide CRH NBRE 5′-[…]-3′ (SEQ ID NO:152) was used in the mobility shift assay.

binding of nuclear protein complexes with the CRH NBRE [2] | Compound | CRH mRNA expression, fold stimulation [1]
 | IL-6: pro-inflammatory cytokine | 1.5+/−1.2 fold
significant increased binding | TNFα | 3.6+/−2.0 fold
significant increased binding | IL-1β: pro-inflammatory cytokine | 2.3+/−1.0 fold
significant increased binding | CCCCC[C@H](O)/C=C/[C@H]1[C@H](O)CC(=O)[C@@H]1C/C=C\CCCC(=O)O [PGE2, reference compound] | 3.85+/−1.5 fold
